ChEMBL document CHEMBL1150109, “New cytotoxic coumarins and prenylated benzophenone derivatives from the bark of Ochrocarpos punctatus from the Madagascar rainforest” (J Nat Prod, 2002)
Values after ≈ are worked out from the molar mass of the structure shown.

These compounds were tested on A2780 (assay: Cytotoxicity against human A2780 cells).
Type: functional, cell-based
`CC(C)CC(=O)c1c2c(c3oc(=O)cc(-c4ccccc4)c3c1O)CC(C(C)(C)O)O2` (stereo unspecified) was tested, and the IC50 was 6.4 µg/mL (≈ 15.1 µM).
In the case of `CC(C)C(=O)c1c2c(c3oc(=O)cc(-c4ccccc4)c3c1O)C=CC(C)(C)O2` [MESUAGIN], the IC50 was 10.8 µg/mL (≈ 27.7 µM).
In the case of `CC(C)=CCC1CC2(CC=C(C)C)C(=O)C3=C(OC(C(C)(C)O)C3)C(C(=O)c3ccccc3)(C2=O)C1(C)C` (stereo unspecified) [OCHROCARPINONE B], the IC50 was 7.4 µg/mL (≈ 14.3 µM).
`CC(C)CC(=O)c1c(O)c2c(-c3ccccc3)cc(=O)oc2c2cc(C(C)(C)O)oc12` [OCHROCARPIN B] was tested, and the IC50 was 3.8 µg/mL (≈ 9.04 µM).
Compound `CCC(C)C(=O)c1c2c(c3oc(=O)cc(-c4ccccc4)c3c1O)CC(C(C)(C)O)O2` (stereo unspecified) has an IC50 of 8.2 µg/mL (≈ 19.4 µM).
With `CC[C@H](C)C(=O)c1c2c(c3oc(=O)cc([C@@H](CC)OC(C)=O)c3c1O)CC(C(C)(C)O)O2` (stereo partly specified) [OCHROCARPIN F] the IC50 was 8.9 µg/mL (≈ 19.9 µM).
`CCCC(=O)c1c2c(c3oc(=O)cc(-c4ccccc4)c3c1O)CC(C(C)(C)O)O2` (stereo unspecified) showed an IC50 of 4.4 µg/mL (≈ 10.8 µM).
`CCC(C)C(=O)c1c2c(c3oc(=O)cc(-c4ccccc4)c3c1O)C=CC(C)(C)O2` (stereo unspecified) showed an IC50 of 4.5 µg/mL (≈ 11.1 µM).
`CCC(OC(C)=O)c1cc(=O)oc2c3c(c(C(=O)[C@@H](C)CC)c(O)c12)OC(C(C)(C)O)C3` (single isomer, unassigned) [OCHROCARPIN G] was tested, and the IC50 was 8.6 µg/mL (≈ 19.3 µM).
`CC[C@H](C)C(=O)c1c(O)c2c(-c3ccccc3)cc(=O)oc2c2cc(C(C)(C)O)oc12` [OCHROCARPIN A] was tested, and the IC50 was 5.2 µg/mL (≈ 12.4 µM).
For `CC(C)=CCC1CC2(CC=C(C)C)C(=O)C(C(=O)c3ccccc3)(C(=O)C3=C2OC(C(C)(C)O)C3)C1(C)C` (stereo unspecified) [OCHROCARPINONE C], the IC50 was 8.2 µg/mL (≈ 15.8 µM).
In the case of `CC(C)C(=O)c1c(O)c2c(-c3ccccc3)cc(=O)oc2c2cc(C(C)(C)O)oc12` [OCHROCARPIN C], the IC50 was 3.7 µg/mL (≈ 9.1 µM).
`CC(C)C(=O)c1c(O)c2c(c3c(-c4ccccc4)cc(=O)oc13)OC(C(C)(C)O)C2` (stereo unspecified) [OCHROCARPIN E] gave an IC50 of 4.9 µg/mL (≈ 12 µM).
`CC(C)=CCC1CC2(CC=C(C)C)C(=O)C3=C(OC(C)(C)C(OO)C3)C(C(=O)c3ccccc3)(C2=O)C1(C)C` (stereo unspecified) gave an IC50 of 8.4 µg/mL (≈ 15.7 µM).
With `CC[C@H](C)C(=O)c1c(O)c2c(-c3ccccc3)cc(=O)oc2c2cc(C(C)(C)OC)oc12` [OCHROCARPIN D] the IC50 was 6.3 µg/mL (≈ 14.5 µM).
With `CC(C)=CCC1CC2(CC=C(C)C)C(=O)C(C(=O)c3ccccc3)(C(=O)C3=C2OC(C)(C)C(OO)C3)C1(C)C` (stereo unspecified) [OCHROCARPINONE A] the IC50 was 6.9 µg/mL (≈ 12.9 µM).
